In US20260199483A1 (Bright Angel Therapeutics Inc., priority 2022, published 2026):
pIC50: −log10 of the molar value. Converted amounts (≈) assume the structure as drawn.

How the values were obtained:
[1] = Mammalian cell toxicity (Cell Titer-Glo); type: cell-based; conditions: human; HepG2 cells, 48 h incubation, Cell Titer-Glo luminescence
Protocol: HepG2 cells were seeded overnight at 500 cells/well in 384-well plate, then incubated with compounds (10-point concentration titration) for 48 h. Cell Titer-Glo® reagent ([…]) was added to each well and after 10-minute incubation at room temperature the luminescent signal was measured using an Envision plate reader (Perkin Elmer).

CaCi2 = test: Antifungal sensitivity testing (broth microdilution MIC); type: cell-based; conditions: CaCi2, 96-well broth microdilution, compounds in DMSO
Protocol: Minimum inhibitory concentrations (MICs) were determined in flat bottom, 96-well plate format using a modified broth microdilution protocol as previously described (Singh et al., PLoS Pathog. 5, e1000532 (2009); LaFayette et al., PLoS Pathog. 6, 79-80 (2010)). Compounds were formulated in dimethyl sulfoxide (DMSO, Sigma-Aldrich Co.). Each compound was tested in duplicate in at least two independent experiments.

[2] = biological target: T1, purified recombinant Yck2 (Candida albicans, UniProt A0A1D8PKB4); test: HotSpot kinase assay; type: biochemical, C. albicans
T1 construct: Yck2 residues 37-345 were PCR amplified from C. albicans genomic DNA; His6 (N); TEV protease site (N); made in house; host or cells: E. coli BL21(DE3)-Gold
Protocol: IC50s were determined using the in vitro HotSpot kinase assay (purified enzymes, ^33P-ATP, an appropriate substrate and 1 μM ATP). For enzyme inhibition assays, compounds were tested in range of ten concentrations from 10 uM to 0.0005 uM using purified recombinant Yck2. Reaction conditions were 1 uM ATP, one hour incubation with inhibitor, and kinase activity detected using 33-ATP phosphorylation of an appropriately selected peptide substrate.
Yck2 residues 37-345 were PCR amplified from C. albicans genomic DNA and subcloned into the vector pMCSG53, which codes for a N-terminal His6 tag, TEV protease site, followed by the Yck2 protein. E. coli BL21(DE3)-Gold competent cells were transformed with this plasmid and the Yck2 protein was purified using methodology previously described (Stogios et al., ACS Chem. Biol. 13, 1322-1332 (2018)).

T1 sequence (A0A1D8PKB4 entry or part of it): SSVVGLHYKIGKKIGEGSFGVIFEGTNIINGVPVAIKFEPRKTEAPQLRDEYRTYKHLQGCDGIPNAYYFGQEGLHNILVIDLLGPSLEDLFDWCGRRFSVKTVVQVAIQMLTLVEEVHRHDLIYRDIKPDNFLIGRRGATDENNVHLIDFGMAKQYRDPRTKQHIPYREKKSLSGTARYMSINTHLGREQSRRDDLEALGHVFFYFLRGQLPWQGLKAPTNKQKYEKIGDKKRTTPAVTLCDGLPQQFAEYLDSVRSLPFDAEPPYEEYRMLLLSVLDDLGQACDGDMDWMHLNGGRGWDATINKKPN

| SMILES | IC50 at 48 h [1] | MIC50 (CaCi2) | pIC50 [2] |
| --- | --- | --- | --- |
| Fc1ccc(-c2nn3cc(CNC[C@H]4CO[C@](Cn5cncn5)(c5ccc(F)cc5F)C4)ccc3c2-c2ccncc2)cc1 (stereo in doubt) [Compound I-256, 1-(trans-5-((1H-1,2,4-triazol-1-yl)methyl)-5-(2,4-difluorophenyl)tetrahydrofuran-3-yl)-N-((2-(4-fluorophenyl)-3-(pyridin-4-yl)pyrazolo[1,5-a]pyridin-6-yl)methyl)methanamine] | 11.8 µM | – | – |
| Nc1nccc(-c2c(-c3ccc(F)cc3)ncn2C2CCN(CC(O)(Cn3cncn3)c3ccc(F)cc3F)CC2)n1 (centres unmarked) [Compound I-32, 1-(4-(5-(2-aminopyrimidin-4-yl)-4-(4-fluorophenyl)-1H-imidazol-1-yl)piperidin-1-yl)-2-(2,4-difluorophenyl)-3-(1H-1,2,4-triazol-1-yl)propan-2-ol] | – | > 50 µM | – |
| Nc1nccc(-c2c(-c3ccc(F)cc3)ncn2C2CCN(CCCC(O)(Cn3cncn3)c3ccc(F)cc3F)CC2)n1 (centres unmarked) [Compound I-58, 5-(4-(5-(2-aminopyrimidin-4-yl)-4-(4-fluorophenyl)-1H-imidazol-1-yl)piperidin-1-yl)-2-(2,4-difluorophenyl)-1-(1H-1,2,4-triazol-1-yl)pentan-2-ol] | – | > 25 µM | 8.50 |
| Cn1cc(-c2ccncc2COC2CCN(CC(O)(Cn3cncn3)c3ccc(F)cc3F)CC2)c(-c2ccc(F)cc2)n1 (centres unmarked) [Compound I-90, 2-(2,4-difluorophenyl)-1-(4-((4-(3-(4-fluorophenyl)-1-methyl-1H-pyrazol-4-yl)pyridin-3-yl)methoxy)piperidin-1-yl)-3-(1H-1,2,4-triazol-1-yl)propan-2-ol] | – | 0.586 µM (≈ 0.354 µg/mL) | 7.32 |
| O=C(NC1CCN(CC(O)(Cn2cncn2)c2ccc(F)cc2F)CC1)c1ccc2c(-c3ccncc3)c(-c3ccc(F)cc3)nn2c1 (centres unmarked) [Compound I-100, N-(1-(2-(2,4-difluorophenyl)-2-hydroxy-3-(1H-1,2,4-triazol-1-yl)propyl)piperidin-4-yl)-2-(4-fluorophenyl)-3-(pyridin-4-yl)pyrazolo[1,5-a]pyridine-6-carboxamide] | – | 0.0651 µM (≈ 0.0425 µg/mL) | 7.48 |
| O=C(NC[C@](O)(Cn1cncn1)c1ccc(F)cc1F)c1ccc2c(-c3ccncc3)c(-c3ccc(F)cc3)nn2c1 [Compound I-116, (S)-N-(2-(2,4-difluorophenyl)-2-hydroxy-3-(1H-1,2,4-triazol-1-yl)propyl)-2-(4-fluorophenyl)-3-(pyridin-4-yl)pyrazolo[1,5-a]pyridine-6-carboxamide] | – | 6.25 µM (≈ 3.56 µg/mL) | 8.10 |
| O=C(NC[C@@](O)(Cn1cncn1)c1ccc(F)cc1F)c1ccc2c(-c3ccncc3)c(-c3ccc(F)cc3)nn2c1 [Compound I-117, (R)-N-(2-(2,4-difluorophenyl)-2-hydroxy-3-(1H-1,2,4-triazol-1-yl)propyl)-2-(4-fluorophenyl)-3-(pyridin-4-yl)pyrazolo[1,5-a]pyridine-6-carboxamide] | – | 0.195 µM (≈ 0.111 µg/mL) | 8.29 |
| OC(COc1cccc2c(-c3ccncc3)c(-c3ccc(F)cc3)nn12)(Cn1cncn1)c1ccc(F)cc1F (centres unmarked) [Compound I-139, 2-(2,4-difluorophenyl)-1-((2-(4-fluorophenyl)-3-(pyridin-4-yl)pyrazolo[1,5-a]pyridin-7-yl)oxy)-3-(1H-1,2,4-triazol-1-yl)propan-2-ol] | > 20 µM | – | – |
| O=C(NCC1CCN(CC(O)(Cn2cncn2)c2ccc(F)cc2F)CC1)c1ccc2c(-c3ccncc3)c(-c3ccc(F)cc3)nn2c1 (centres unmarked) [Compound I-147, N-((1-(2-(2,4-difluorophenyl)-2-hydroxy-3-(1H-1,2,4-triazol-1-yl)propyl)piperidin-4-yl)methyl)-2-(4-fluorophenyl)-3-(pyridin-4-yl)pyrazolo[1,5-a]pyridine-6-carboxamide] | – | 0.0977 µM (≈ 0.0651 µg/mL) | 7.43 |
| O=C(NCCC(O)(Cn1cncn1)c1ccc(F)cc1F)c1ccc2c(-c3ccncc3)c(-c3ccc(F)cc3)nn2c1 (centres unmarked) [Compound I-148, N-(3-(2,4-difluorophenyl)-3-hydroxy-4-(1H-1,2,4-triazol-1-yl)butyl)-2-(4-fluorophenyl)-3-(pyridin-4-yl)pyrazolo[1,5-a]pyridine-6-carboxamide] | – | 6.25 µM (≈ 3.65 µg/mL) | 8.79 |
| OC(CN1CCC(Oc2cccc3c(-c4ccncc4)c(-c4ccc(F)cc4)nn23)CC1)(Cn1cncn1)c1ccc(F)cc1F (centres unmarked) [Compound I-154, 2-(2,4-difluorophenyl)-1-(4-((2-(4-fluorophenyl)-3-(pyridin-4-yl)pyrazolo[1,5-a]pyridin-7-yl)oxy)piperidin-1-yl)-3-(1H-1,2,4-triazol-1-yl)propan-2-ol] | – | 0.195 µM (≈ 0.122 µg/mL) | 6.75 |
| Nc1nccc(-c2c(-c3ccc(F)cc3)ncn2C2CCN(C3CCN(CC(O)(Cn4cncn4)c4ccc(F)cc4F)CC3)CC2)n1 (centres unmarked) [Compound I-224] | – | 25 µM (≈ 16.5 µg/mL) | 7.14 |
| Cn1cc(-c2ccnc3c2C(=O)N(CC2CCN(CC(O)(Cn4cncn4)c4ccc(F)cc4F)CC2)C3)c(-c2ccc(F)cc2)n1 (centres unmarked) [Compound I-230, 6-((1-(2-(2,4-difluorophenyl)-2-hydroxy-3-(1H-1,2,4-triazol-1-yl)propyl)piperidin-4-yl)methyl)-4-(3-(4-fluorophenyl)-1-methyl-1H-pyrazol-4-yl)-6,7-dihydro-5H-pyrrolo[3,4-b]pyridin-5-one] | – | 1.88 µM (≈ 1.21 µg/mL) | 8.53 |
| Nc1nccc(-c2c(-c3ccc(F)cc3)ncn2C2CCN(CCCn3c4c(c5cc(Cl)ccc53)CCNC4)CC2)n1 [Compound I-232, 4-(1-(1-(3-(6-chloro-1,2,3,4-tetrahydro-9H-pyrido[3,4-b]indol-9-yl)propyl)piperidin-4-yl)-4-(4-fluorophenyl)-1H-imidazol-5-yl)pyrimidin-2-amine] | – | > 25 µM | 8.58 |
| Cn1cc(-c2ccncc2COCC[C@@](O)(Cn2cncn2)c2ccc(F)cc2F)c(-c2ccc(F)cc2)n1 [Compound I-236, (S)-2-(2,4-difluorophenyl)-4-((4-(3-(4-fluorophenyl)-1-methyl-1H-pyrazol-4-yl)pyridin-3-yl)methoxy)-1-(1H-1,2,4-triazol-1-yl)butan-2-ol] | – | 2.34 µM (≈ 1.25 µg/mL) | 6.77 |
| Cn1cc(-c2ccnc3c2C(=O)N(CC2CCN(C[C@](O)(Cn4cncn4)c4ccc(F)cc4F)CC2)C3)c(-c2ccc(F)cc2)n1 [Compound I-238, (S)-6-((1-(2-(2,4-difluorophenyl)-2-hydroxy-3-(1H-1,2,4-triazol-1-yl)propyl)piperidin-4-yl)methyl)-4-(3-(4-fluorophenyl)-1-methyl-1H-pyrazol-4-yl)-6,7-dihydro-5H-pyrrolo[3,4-b]pyridin-5-one] | – | 0.781 µM (≈ 0.502 µg/mL) | 8.11 |
| Cn1cc(-c2ccncc2COC(=O)NC2CCN(CC(O)(Cn3cncn3)c3ccc(F)cc3F)CC2)c(-c2ccc(F)cc2)n1 (centres unmarked) [Compound I-244, (4-(3-(4-fluorophenyl)-1-methyl-1H-pyrazol-4-yl)pyridin-3-yl)methyl (1-(2-(2,4-difluorophenyl)-2-hydroxy-3-(1H-1,2,4-triazol-1-yl)propyl)piperidin-4-yl)carbamate] | 18.4 µM | – | – |
| O[C@@](CNCc1ccc2c(-c3ccncc3)c(-c3ccc(F)cc3)nn2c1)(Cn1cncn1)c1ccc(F)cc1F [Compound I-253, (S)-2-(2,4-difluorophenyl)-1-(((2-(4-fluorophenyl)-3-(pyridin-4-yl)pyrazolo[1,5-a]pyridin-6-yl)methyl)amino)-3-(1H-1,2,4-triazol-1-yl)propan-2-ol] | – | 0.137 µM (≈ 0.0761 µg/mL) | 8.23 |
| OC(CN1CCC(NCc2ccc3c(-c4ccncc4)c(-c4ccc(F)cc4)nn3c2)CC1)(Cn1cncn1)c1ccc(F)cc1F (centres unmarked) [Compound I-254, 2-(2,4-difluorophenyl)-1-(4-(((2-(4-fluorophenyl)-3-(pyridin-4-yl)pyrazolo[1,5-a]pyridin-6-yl)methyl)amino)piperidin-1-yl)-3-(1H-1,2,4-triazol-1-yl)propan-2-ol] | – | – | 8.51 |
| [2H]C([2H])(NCC(O)(Cn1cncn1)c1ccc(F)cc1F)c1ccc2c(-c3ccncc3)c(-c3ccc(F)cc3)nn2c1 (centres unmarked) [Compound I-261, 2-(2,4-difluorophenyl)-1-(((2-(4-fluorophenyl)-3-(pyridin-4-yl)pyrazolo[1,5-a]pyridin-6-yl)methyl-d2)amino)-3-(1H-1,2,4-triazol-1-yl)propan-2-ol] | – | 0.195 µM (≈ 0.109 µg/mL) | – |
| OC(Cn1cncn1)(c1ccc(F)cc1F)C(F)(F)c1ccc(-c2ccc(CNCc3ccc4c(-c5ccncc5)c(-c5ccc(F)cc5)nn4c3)cc2)cn1 (centres unmarked) [Compound I-262, 2-(2,4-difluorophenyl)-1,1-difluoro-1-(5-(4-((((2-(4-fluorophenyl)-3-(pyridin-4-yl)pyrazolo[1,5-a]pyridin-6-yl)methyl)amino)methyl)phenyl)pyridin-2-yl)-3-(1H-1,2,4-triazol-1-yl)propan-2-ol] | – | 0.293 µM (≈ 0.222 µg/mL) | – |
